Assay results from the NIST ThermoML archive (doi:10.1021/je500977g).
Numbers after ± are expanded uncertainties.

Assay: mn = molality of the nth substance listed, in mol/kg
Conditions: Liquid

C[N+](C)(C)[O-] [trimethylamine oxide] + O
mass density [kg/m3]
Conditions	278.15 K	288.15 K	298.15 K	308.15 K	323.15 K
101 kPa, Vibrating tube method, m1 = 0.0875	1000.16 ± 0.04	999.28 ± 0.04	997.22 ± 0.04	994.21 ± 0.05	988.2 ± 0.05
101 kPa, Vibrating tube method, m1 = 0.1707	1000.36 ± 0.04	999.46 ± 0.04	997.4 ± 0.04	994.38 ± 0.05	988.37 ± 0.05
101 kPa, Vibrating tube method, m1 = 0.2465	1000.55 ± 0.04	999.63 ± 0.04	997.57 ± 0.05	994.54 ± 0.05	988.53 ± 0.05
101 kPa, Vibrating tube method, m1 = 0.3259	1000.75 ± 0.04	999.82 ± 0.04	997.74 ± 0.05	994.71 ± 0.05	988.7 ± 0.05
101 kPa, Vibrating tube method, m1 = 0.4018	1000.95 ± 0.04	1000 ± 0.04	997.91 ± 0.05	994.88 ± 0.05	988.86 ± 0.05
101 kPa, Vibrating tube method, m1 = 0.5862	1001.48 ± 0.04	1000.47 ± 0.04	998.35 ± 0.05	995.31 ± 0.05	989.27 ± 0.05
101 kPa, Vibrating tube method, m1 = 0.7963	1002.11 ± 0.05	1001.02 ± 0.05	998.86 ± 0.05	995.8 ± 0.05	989.75 ± 0.05
101 kPa, Vibrating tube method, m1 = 1.039	1002.89 ± 0.05	1001.71 ± 0.05	999.49 ± 0.05	996.41 ± 0.05	990.34 ± 0.05
101 kPa, Vibrating tube method, m1 = 1.373	1004.01 ± 0.05	1002.7 ± 0.05	1000.4 ± 0.05	997.27 ± 0.05	991.15 ± 0.05
101 kPa, Vibrating tube method, m1 = 1.923	1006.05 ± 0.05	1004.48 ± 0.05	1002.01 ± 0.05	998.77 ± 0.05	992.62 ± 0.05
101 kPa, Vibrating tube method, m1 = 3.259	1011.69 ± 0.06	1009.4 ± 0.06	1006.44 ± 0.06	1002.83 ± 0.06	996.37 ± 0.06
101 kPa, Vibrating tube method, m1 = 4.325	1016.41 ± 0.06	1013.58 ± 0.06	1010.2 ± 0.06	1006.27 ± 0.06	999.45 ± 0.06
10000 kPa, Constant-volume piezometry, m1 = 0.1707	1005.1 ± 0.15	1003.98 ± 0.16	1001.77 ± 0.17	998.64 ± 0.18	992.59 ± 0.19
10000 kPa, Constant-volume piezometry, m1 = 0.3259	1005.43 ± 0.15	1004.27 ± 0.16	1002.05 ± 0.17	998.93 ± 0.18	992.87 ± 0.19
10000 kPa, Constant-volume piezometry, m1 = 0.5862	1006.05 ± 0.15	1004.81 ± 0.16	1002.57 ± 0.17	999.44 ± 0.18	993.35 ± 0.19
10000 kPa, Constant-volume piezometry, m1 = 1.039	1007.25 ± 0.16	1005.85 ± 0.16	1003.56 ± 0.17	1000.4 ± 0.18	994.29 ± 0.19
10000 kPa, Constant-volume piezometry, m1 = 1.373	1008.19 ± 0.16	1006.74 ± 0.16	1004.38 ± 0.17	1001.17 ± 0.18	995.02 ± 0.19
10000 kPa, Constant-volume piezometry, m1 = 1.923	1009.95 ± 0.16	1008.34 ± 0.17	1005.83 ± 0.17	1002.54 ± 0.18	996.38 ± 0.2
10000 kPa, Constant-volume piezometry, m1 = 3.259	1015.17 ± 0.16	1012.89 ± 0.17	1009.93 ± 0.18	1006.31 ± 0.19	999.89 ± 0.2
10000 kPa, Constant-volume piezometry, m1 = 4.325	1019.59 ± 0.17	1016.87 ± 0.18	1013.44 ± 0.18	1009.52 ± 0.19	1002.81 ± 0.21
25000 kPa, Constant-volume piezometry, m1 = 0.1707	1012.1 ± 0.25	1010.63 ± 0.26	1008.19 ± 0.27	1004.94 ± 0.28	998.81 ± 0.3
25000 kPa, Constant-volume piezometry, m1 = 0.3259	1012.31 ± 0.25	1010.83 ± 0.26	1008.39 ± 0.27	1005.15 ± 0.28	999.01 ± 0.3
25000 kPa, Constant-volume piezometry, m1 = 0.5862	1012.75 ± 0.25	1011.2 ± 0.26	1008.79 ± 0.27	1005.53 ± 0.28	999.37 ± 0.3
25000 kPa, Constant-volume piezometry, m1 = 1.039	1013.68 ± 0.25	1012.01 ± 0.26	1009.58 ± 0.27	1006.27 ± 0.28	1000.14 ± 0.3
25000 kPa, Constant-volume piezometry, m1 = 1.373	1014.44 ± 0.25	1012.71 ± 0.26	1010.25 ± 0.27	1006.92 ± 0.28	1000.75 ± 0.3
25000 kPa, Constant-volume piezometry, m1 = 1.923	1015.88 ± 0.25	1014.05 ± 0.27	1011.48 ± 0.28	1008.08 ± 0.29	1001.93 ± 0.3
25000 kPa, Constant-volume piezometry, m1 = 3.259	1020.33 ± 0.26	1018.05 ± 0.27	1015.13 ± 0.28	1011.45 ± 0.29	1005.1 ± 0.31
25000 kPa, Constant-volume piezometry, m1 = 4.325	1024.4 ± 0.27	1021.69 ± 0.28	1018.32 ± 0.29	1014.35 ± 0.3	1007.83 ± 0.32
50000 kPa, Constant-volume piezometry, m1 = 0.1707	1023.24 ± 0.45	1021.25 ± 0.46	1018.48 ± 0.47	1015.02 ± 0.48	1008.75 ± 0.5
50000 kPa, Constant-volume piezometry, m1 = 0.3259	1023.31 ± 0.45	1021.31 ± 0.46	1018.55 ± 0.47	1015.1 ± 0.48	1008.83 ± 0.5
50000 kPa, Constant-volume piezometry, m1 = 0.5862	1023.5 ± 0.45	1021.47 ± 0.46	1018.73 ± 0.47	1015.28 ± 0.48	1009.01 ± 0.5
50000 kPa, Constant-volume piezometry, m1 = 1.039	1023.97 ± 0.45	1021.88 ± 0.47	1019.17 ± 0.48	1015.72 ± 0.49	1009.49 ± 0.5
50000 kPa, Constant-volume piezometry, m1 = 1.373	1024.42 ± 0.46	1022.31 ± 0.47	1019.6 ± 0.48	1016.14 ± 0.49	1009.9 ± 0.5
50000 kPa, Constant-volume piezometry, m1 = 1.923	1025.37 ± 0.46	1023.22 ± 0.47	1020.48 ± 0.48	1016.98 ± 0.49	1010.79 ± 0.5
50000 kPa, Constant-volume piezometry, m1 = 3.259	1028.7 ± 0.46	1026.33 ± 0.48	1023.44 ± 0.49	1019.69 ± 0.5	1013.38 ± 0.51
50000 kPa, Constant-volume piezometry, m1 = 4.325	1032.12 ± 0.47	1029.39 ± 0.48	1026.18 ± 0.49	1022.07 ± 0.5	1015.77 ± 0.52
75000 kPa, Constant-volume piezometry, m1 = 0.1707	1033.79 ± 0.66	1031.35 ± 0.67	1028.27 ± 0.68	1024.62 ± 0.69	1018.2 ± 0.7
75000 kPa, Constant-volume piezometry, m1 = 0.3259	1033.7 ± 0.66	1031.27 ± 0.67	1028.22 ± 0.68	1024.58 ± 0.69	1018.18 ± 0.7
75000 kPa, Constant-volume piezometry, m1 = 0.5862	1033.63 ± 0.66	1031.21 ± 0.67	1028.19 ± 0.68	1024.56 ± 0.69	1018.19 ± 0.7
75000 kPa, Constant-volume piezometry, m1 = 1.039	1033.68 ± 0.66	1031.28 ± 0.67	1028.3 ± 0.68	1024.68 ± 0.69	1018.41 ± 0.7
75000 kPa, Constant-volume piezometry, m1 = 1.373	1033.85 ± 0.66	1031.46 ± 0.67	1028.51 ± 0.68	1024.9 ± 0.69	1018.64 ± 0.7
75000 kPa, Constant-volume piezometry, m1 = 1.923	1034.37 ± 0.67	1031.97 ± 0.67	1029.06 ± 0.68	1025.43 ± 0.69	1019.23 ± 0.71
75000 kPa, Constant-volume piezometry, m1 = 3.259	1036.77 ± 0.67	1034.24 ± 0.68	1031.32 ± 0.69	1027.51 ± 0.7	1021.32 ± 0.71
75000 kPa, Constant-volume piezometry, m1 = 4.325	1039.49 ± 0.68	1036.73 ± 0.69	1033.57 ± 0.7	1029.5 ± 0.71	1023.38 ± 0.72
100000 kPa, Constant-volume piezometry, m1 = 0.1707	1043.78 ± 0.87	1040.95 ± 0.88	1037.61 ± 0.89	1033.77 ± 0.9	1027.22 ± 0.91
100000 kPa, Constant-volume piezometry, m1 = 0.3259	1043.57 ± 0.87	1040.74 ± 0.88	1037.41 ± 0.89	1033.59 ± 0.9	1027.09 ± 0.91
100000 kPa, Constant-volume piezometry, m1 = 0.5862	1043.26 ± 0.87	1040.48 ± 0.88	1037.18 ± 0.89	1033.39 ± 0.9	1026.94 ± 0.91
100000 kPa, Constant-volume piezometry, m1 = 1.039	1042.96 ± 0.87	1040.22 ± 0.88	1036.99 ± 0.89	1033.25 ± 0.9	1026.92 ± 0.91
100000 kPa, Constant-volume piezometry, m1 = 1.373	1042.87 ± 0.87	1040.16 ± 0.88	1036.98 ± 0.89	1033.26 ± 0.9	1027 ± 0.91
100000 kPa, Constant-volume piezometry, m1 = 1.923	1043.01 ± 0.88	1040.3 ± 0.88	1037.22 ± 0.89	1033.48 ± 0.9	1027.3 ± 0.91
100000 kPa, Constant-volume piezometry, m1 = 3.259	1044.64 ± 0.88	1041.8 ± 0.89	1038.74 ± 0.9	1034.99 ± 0.91	1028.88 ± 0.92
100000 kPa, Constant-volume piezometry, m1 = 4.325	1046.85 ± 0.89	1043.78 ± 0.9	1040.54 ± 0.9	1036.64 ± 0.91	1030.78 ± 0.93
